In ChEMBL document CHEMBL1131925, “Modulation of multidrug resistance in tumor cells by taxinine derivatives” (Bioorg Med Chem Lett, 1999):
≈ marks a conversion by molar mass, not a printed value.

Legend:
[1] = Amount of vincristine (VCR) accumulation in multidrug-resistant human ovarian cancer 2780AD cells at a concentration of 10 ug/mL.; type: functional, A2780 ADR
[2] = Amount of vincristine (VCR) accumulation in multidrug-resistant human ovarian cancer 2780AD cells at a concentration of 1 ug/mL.; type: functional, A2780 ADR
[3] = Cytotoxicity against murine lymphoma L1210 cells; type: functional, cell-based; details: Mus musculus
[4] = Cytotoxicity against human epidermoid carcinoma KB cells; type: functional, cell-based

| Structure (SMILES) | Vincristine accumulation [1] [%] | Vincristine accumulation (% of control) [2] [%] | IC50 [3] [µg/mL] | IC50 [4] [µg/mL] |
| --- | --- | --- | --- | --- |
| CC(=O)O[C@@H]1[C@@H]2CC(=O)C(C)=C([C@@H](OC(C)=O)[C@H](OC(C)=O)[C@]3(C)CC[C@H](O)[C@]4(CO4)[C@@H]13)C2(C)C | 238 | 144 |  |  |
| CC[Si](CC)(CC)O[C@H]1CC[C@@]2(C)[C@@H](OC(C)=O)[C@H](OC(C)=O)C3=C(C)C(=O)C[C@@H]([C@@H](OC(C)=O)[C@@H]2[C@@]12CO2)C3(C)C | 748 | 227 |  |  |
| C=C1[C@@H](OC(=O)/C=C/c2ccccc2)CC[C@@]2(C)[C@@H](O)[C@H](O)C3=C(C)C(=O)C[C@@H]([C@@H](O)[C@H]12)C3(C)C | 518 | 225 |  |  |
| C=C1[C@@H](O)CC[C@@]2(C)[C@@H](OC(C)=O)[C@H](OC(C)=O)C3=C(C)C(=O)C[C@@H]([C@@H](O)[C@H]12)C3(C)C | 271 | 139 |  |  |
| C=C1[C@@H](OC(=O)/C=C/c2ccccc2)CC[C@@]2(C)[C@@H](OC(C)=O)[C@H](OC(C)=O)C3=C(C)C(=O)C[C@@H]([C@@H](OC(C)=O)[C@H]12)C3(C)C | 571 | 195 |  |  |
| C=C1[C@@H](OCOCc2ccccc2)CC[C@@]2(C)[C@@H](OC(C)=O)[C@H](OC(C)=O)C3=C(C)C(=O)C[C@@H]([C@@H](OC(C)=O)[C@H]12)C3(C)C | 1110 | 401 | 8 (≈ 13.4 µM) | 9 (≈ 15.1 µM) |
| C=C1[C@@H](O)CC[C@@]2(C)[C@@H](OC(C)=O)[C@H](OC(C)=O)C3=C(C)[C@@H](O)C[C@@H]([C@@H](OC(C)=O)[C@H]12)C3(C)C | 422 | 164 |  |  |
| C=C1[C@@H](OC(=O)/C=C/c2ccccc2)CC[C@@]2(C)[C@@H](OC(=O)/C=C/c3ccccc3)[C@H](OC(=O)/C=C/c3ccccc3)C3=C(C)C(=O)C[C@@H]([C@@H](OC(C)=O)[C@H]12)C3(C)C | 273 | 181 |  |  |
| C=C1[C@@H](O)CC[C@@]2(C)[C@@H](OC(C)=O)[C@H](OC(C)=O)C3=C(C)[C@H](OC(=O)/C=C/c4ccccc4)C[C@@H]([C@@H](OC(C)=O)[C@H]12)C3(C)C | 551 | 213 |  |  |
| CC(=O)O[C@@H]1[C@@H]2CC(=O)C(C)=C([C@@H](OC(C)=O)[C@H](OC(C)=O)[C@]3(C)CC[C@H](OC(=O)c4ccccc4)[C@@]4(CO4)[C@@H]13)C2(C)C | 402 | 140 |  |  |
| C=C1[C@@H](OC(=O)c2ccccc2)CC[C@@]2(C)[C@@H](OC(C)=O)[C@H](OC(C)=O)C3=C(C)C(=O)C[C@@H]([C@@H](OC(=O)c4ccccc4)[C@H]12)C3(C)C | 470 | 146 |  |  |
| C=C1[C@@H](OC(=O)/C=C/c2ccccc2)CC[C@@]2(C)[C@@H](OC(=O)c3ccccc3)[C@H](OC(=O)c3ccccc3)C3=C(C)C(=O)C[C@@H]([C@@H](OC(C)=O)[C@H]12)C3(C)C | 210 | 141 |  |  |
| C=C1[C@@H](O)CC[C@@]2(C)[C@@H](OC(C)=O)[C@H](OC(C)=O)C3=C(C)[C@@H](OC(=O)c4ccccc4)C[C@@H]([C@@H](OC(C)=O)[C@H]12)C3(C)C | 643 | 185 |  |  |
| C=C1[C@@H](O)CC[C@@]2(C)[C@@H](OC(C)=O)[C@H](OC(C)=O)C3=C(C)[C@@H](OC(=O)/C=C/c4ccccc4)C[C@@H]([C@@H](OC(C)=O)[C@H]12)C3(C)C | 699 | 249 |  |  |
| C=C1[C@@H](OC(=O)c2ccccc2)CC[C@@]2(C)[C@@H](OC(C)=O)[C@H](OC(C)=O)C3=C(C)[C@@H](O)C[C@@H]([C@@H](OC(C)=O)[C@H]12)C3(C)C | 649 | 151 |  |  |
| C=C1[C@@H](O)CC[C@@]2(C)[C@@H](OC(C)=O)[C@H](OC(C)=O)C3=C(C)C(=O)C[C@@H]([C@@H](OC(=O)/C=C/c4ccccc4)[C@H]12)C3(C)C | 727 | 207 |  |  |
| C=C1[C@@H](O[Si](CC)(CC)CC)CC[C@@]2(C)[C@@H](OC(C)=O)[C@H](OC(C)=O)C3=C(C)C(=O)C[C@@H]([C@@H](OC(C)=O)[C@H]12)C3(C)C | 669 | 213 |  |  |
| C=C1[C@@H](OC(=O)c2ccccc2)CC[C@@]2(C)[C@@H](OC(C)=O)[C@H](OC(C)=O)C3=C(C)C(=O)C[C@@H]([C@@H](OC(C)=O)[C@H]12)C3(C)C | 645 | 184 |  |  |
| C=C1[C@@H](OC(=O)c2ccccc2)CC[C@@]2(C)[C@@H](OC(=O)c3ccccc3)[C@H](OC(=O)c3ccccc3)C3=C(C)C(=O)C[C@@H]([C@@H](OC(C)=O)[C@H]12)C3(C)C | 324 | 132 |  |  |
| C=C1[C@@H](O)CC[C@@]2(C)[C@@H](OC(C)=O)[C@H](OC(C)=O)C3=C(C)[C@H](O)C[C@@H]([C@@H](OC(C)=O)[C@H]12)C3(C)C | 290 | 149 |  |  |
| CC[Si](CC)(CC)O[C@H]1CC[C@@]2(C)[C@@H](OC(C)=O)[C@H](OC(C)=O)C3=C(C)C(=O)C[C@@H]([C@@H](OC(C)=O)[C@@H]2[C@]12CO2)C3(C)C | 752 | 233 |  |  |
| CC(=O)O[C@@H]1[C@@H]2CC(=O)C(C)=C([C@@H](OC(C)=O)[C@H](OC(C)=O)[C@]3(C)CC[C@H](OC(=O)/C=C/c4ccccc4)[C@@]4(CO4)[C@@H]13)C2(C)C | 1027 | 358 | 3 (≈ 4.82 µM) | > 10 |
| C=C1[C@@H](OC(=O)/C=C/c2ccccc2)CC[C@@]2(C)[C@@H](OC(=O)/C=C/c3ccccc3)[C@H](OC(=O)/C=C/c3ccccc3)C3=C(C)C(=O)C[C@@H]([C@@H](OC(=O)/C=C/c4ccccc4)[C@H]12)C3(C)C | 230 | 186 |  |  |
| CC(=O)O[C@@H]1[C@@H]2CC(=O)C(C)=C([C@@H](OC(C)=O)[C@H](OC(C)=O)[C@]3(C)CC[C@H](OC(=O)c4ccccc4)[C@]4(CO4)[C@@H]13)C2(C)C | 391 | 200 |  |  |
| CC(=O)O[C@@H]1[C@@H]2CC(=O)C(C)=C([C@@H](OC(C)=O)[C@H](OC(C)=O)[C@]3(C)CC[C@H](O)[C@@]4(CO4)[C@@H]13)C2(C)C | 364 | 180 |  |  |
| C=C1[C@@H](OC(=O)/C=C/c2ccccc2)CC[C@@]2(C)[C@@H](OC(C)=O)[C@H](OC(C)=O)C3=C(C)[C@H](OC(=O)/C=C/c4ccccc4)C[C@@H]([C@@H](OC(C)=O)[C@H]12)C3(C)C | 234 | 157 |  |  |
| C=C1[C@@H](OC(=O)c2ccccc2)CC[C@@]2(C)[C@@H](OC(C)=O)[C@H](OC(C)=O)C3=C(C)[C@H](OC(=O)c4ccccc4)C[C@@H]([C@@H](OC(C)=O)[C@H]12)C3(C)C | 391 | 197 |  |  |
| C=C1[C@@H](OC(=O)/C=C/c2ccccc2)CC[C@@]2(C)[C@@H](O)[C@H](O)C3=C(C)C(=O)C[C@@H]([C@@H](OC(C)=O)[C@H]12)C3(C)C | 619 | 274 |  |  |
| C=C1[C@@H](O)CC[C@@]2(C)[C@@H](OC(C)=O)[C@H](OC(C)=O)C3=C(C)C(=O)C[C@@H]([C@@H](OC(C)=O)[C@H]12)C3(C)C [TAXININE A] | 461 | 153 |  |  |
| COc1ccc(CCN(C)CCCC(C#N)(c2ccc(OC)c(OC)c2)C(C)C)cc1OC (centres undefined) [VERAPAMIL] | 739 | 254 |  |  |
